Source: BindingDB's records for doi:10.1002/cbic.201200279 (University of Southampton, 2012)
Square brackets hold non-standard residues; d marks the D form. Peptide text beside a SMILES is read from it. NMeY = CN[C@@H](Cc1ccc(O)cc1)C(=O)O

Biological target: Bifunctional purine biosynthesis protein ATIC (Homo sapiens, UniProt P31939)
Experiment: Enzyme Inhibition Assay
Conditions: 25 °C
From the text: Enzyme inhibition using aminoimidazole carboxamide ribonucleotide transformylase/inosine monophosphate cyclohydrolase (ATIC).

Chain of Bifunctional purine biosynthesis protein ATIC (P31939 whole entry): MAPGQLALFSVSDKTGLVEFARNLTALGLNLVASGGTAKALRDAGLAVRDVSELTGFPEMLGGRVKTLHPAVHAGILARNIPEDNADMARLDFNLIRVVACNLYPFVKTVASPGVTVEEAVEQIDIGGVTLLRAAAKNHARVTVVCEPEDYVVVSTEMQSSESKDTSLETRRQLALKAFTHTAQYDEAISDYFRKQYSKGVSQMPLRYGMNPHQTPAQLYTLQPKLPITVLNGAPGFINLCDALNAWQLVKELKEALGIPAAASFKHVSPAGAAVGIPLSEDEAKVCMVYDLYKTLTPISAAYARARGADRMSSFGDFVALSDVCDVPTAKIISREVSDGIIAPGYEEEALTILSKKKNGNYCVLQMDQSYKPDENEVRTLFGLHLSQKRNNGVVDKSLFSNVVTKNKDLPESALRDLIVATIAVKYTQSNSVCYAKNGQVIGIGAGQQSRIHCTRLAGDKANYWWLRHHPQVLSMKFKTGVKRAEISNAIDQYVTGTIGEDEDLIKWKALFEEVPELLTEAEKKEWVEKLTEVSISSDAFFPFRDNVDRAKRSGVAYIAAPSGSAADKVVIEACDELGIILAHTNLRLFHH

SMILES | Ki [µM]
CCNC(=O)[C@H](Cc1ccc(O)cc1)NC(=O)[C@H](CCCN=C(N)N)NC(C)=O [RY Analogue, 8] (Ac-Arg-Tyr-NHEt) | 84
CCNC(=O)[C@H](Cc1ccc(OC)cc1)NC(=O)[C@H](CCCN=C(N)N)NC(C)=O [RY Analogue, 11] (Ac-Arg-Tyr(Me)-NHEt) | 87
CCNC(=O)[C@H](Cc1ccc(C#N)cc1)NC(=O)[C@H](CCCN=C(N)N)NC(C)=O [RY Analogue, 12] | 56
CCNC(=O)[C@H](Cc1ccc(O)cc1)N(C)C(=O)[C@H](CCCN=C(N)N)NC(C)=O [RY Analogue, 16] (Ac-Arg-[NMeY]-NHEt) | 145
CCNC(=O)[C@H](Cc1ccc(B(O)O)cc1)NC(=O)[C@H](CCCN=C(N)N)NC(C)=O [RY Analogue, 13] | 59
CCNC(=O)[C@H](Cc1ccc([N+](=O)[O-])cc1)N(C)C(=O)[C@H](CCCN=C(N)N)NC(C)=O [RY Analogue, 17] | 2.5
CCNC(=O)[C@H](Cc1ccc([N+](=O)[O-])cc1)NC(=O)[C@H](CCCN=C(N)N)NC(C)=O [RY Analogue, 14] | 0.685
CCNC(=O)[C@H](Cc1ccc(F)cc1)NC(=O)[C@H](CCCN=C(N)N)NC(C)=O [RY Analogue, 10] | 135
CCNC(=O)[C@H](Cc1ccccc1)NC(=O)[C@H](CCCN=C(N)N)NC(C)=O [RY Analogue, 9] | 339
